# Assay results reported in patent publication US5441883A, “A3 adenosine receptor, DNA, and uses” (priority 1993, dated 1995).
# Like-named read-outs stand apart in the source and are kept apart here.
# Experiments:
# [1] = target: T1, A3 adenosine receptor (Rattus norvegicus, UniProt P28647); test: biochemical; assay type: binding; conditions: for ability to compete with [125I]APNEA for A3 receptor binding: 100 μM
# T1 sequence (P28647 1-320): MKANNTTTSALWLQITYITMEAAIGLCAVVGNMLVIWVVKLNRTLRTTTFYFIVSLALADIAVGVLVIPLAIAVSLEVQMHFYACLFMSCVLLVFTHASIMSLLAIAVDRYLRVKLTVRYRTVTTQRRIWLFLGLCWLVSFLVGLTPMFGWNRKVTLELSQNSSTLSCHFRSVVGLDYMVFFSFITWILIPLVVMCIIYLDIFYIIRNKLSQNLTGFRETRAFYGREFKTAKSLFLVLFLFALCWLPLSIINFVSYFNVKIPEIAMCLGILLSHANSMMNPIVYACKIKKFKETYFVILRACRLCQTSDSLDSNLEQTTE
# Procedure: FIGS. 4A and 4B illustrates competitive binding assays using stably transfected CHO cell membrane preparations.
# (§1) Cell membranes were prepared as follows. COS-7 cells (transient expressors) were harvested 48 hrs after transfection, whereas CHO cells (stable expressors) were grown to confluence in 150 mm plates. Cells were washed twice with ice-cold HOB buffer [15 mM Tris-HCl (pH 7.4), 5 mM MgCl2, 1 mM EDTA] and scraped off plates with a rubber policeman. Cells were then collected by centrifugation at 1,200 rpm (xx g), resuspended in HOB buffer, transferred to a Dounce homogenizer on ice, and homogenized for 20 sec with a CorTarge homogenizer (Eberbach Inc., Ann Arbor, Mich.) at the #3 speed setting. The homogenate was then centrifuged at 2,000 rpm (xx g) for 10 min at 4° C. The supernatant was saved and the pellet resuspended in HOB buffer and subjected to a second round of homogenation. The second homogenate was centrifuged at 2000 rpm (xx g) for 10 min and the pellet was discarded. Supernatants were pooled and centrifuged at 34,000 rpm (xx g) for 45 min. These crude membrane pellets were resuspended in TEM buffer [50 mM Tris-HCl (pH 7.4), 5 mM MgCl2, 1 mM EDTA]. Adenosine deaminase (Sigma, St Louis, Mo.) was added to the membrane suspensions to a concentration of 2 Units/ml and incubated at 37° C. for 30 min. The membrane suspension was subsequently recentrifuged at 34,000 rpm (xx g) for 45 min. The resulting pellet was resuspended in TEM buffer at a protein concentration of about 1 mg/ml and stored in small aliquots at -70° C. The protein concentration was measured according to the method of Lowry et al. (1954, J. Biol. Chem. 207: 1-XXX) using bovine serum albumin as a standard.
# Radioligand binding assays were carried out in duplicate in 500 μl of a solution containing (at final concentrations) 50 mM Tris-HCl (pH 7.4), 5 mM MgCl2, 1 mM EDTA, 0.025 % ascorbic acid, radioligands, and appropriate drugs. […] ([aH]XAC), [^3 H]-labeled 2-[4-(2-[(4-aminophenyl)methylcarbobylamino]ethylaminocarbonyl)ethyl)phenyl]ethylamino-5'-N-ethylcarboxamidoadenosine ([^3 H]PAPA-APEC), and [^3 H]-labeled [2-(4-(2-carboxyethyl)phenylethyamino)5'-N-ethylcarboxamidoadenosine ([^3 H]CGS21680). Receptor binding was initiated by the addition of membrane preparations in an amount equivalent to 20-100 μg protein, and carried out at 37° C. for 1 hr. Nonspecific binding was determined in the presence of 10 μM R-N^6 -phenyl-2-propyladenosine (R-PIA). After incubation, samples were filtered through glass fiber filters (Schleicher and Schuell #32) and washed three times with 4 ml ice-cold 10 mM TrisoHCl (pH 7.4). Radioactivity retained on the filters were counted using a Beckman LS6800 scintillation counter (Beckman Instruments, Palo Alto, Calif.). […] A LIGAND computer program was used for data analysis and curve fitting (Munson & Rodband, 1980, Anal. Biochem. 107: 220-225).
# The A3 receptor was then characterized using competition assays between [^125 I]APNEA A3 receptor binding versus a series of other adenosine receptor ligands. Labeled APNEA was present in these assays at 0.5 nM; unlabled competitors were present at varying concentrations as shown in FIG. 4A.
# [2] = target: T1, A3 adenosine receptor; test: cell-based; assay type: cell-based
# Procedure: The concentrations of adenosine agonists used are 100 nM and the concentration of forskolin is 1 μM. Values are obtained from triplicate plates and shown as mean ±S.E.
# The cell were not or pretreated with 100 ng/ml pertussis toxin for 18 hours. The concentration of forskolin and adenosine agonists used are as in FIG. 5.
# It is known that the A 1 adenosine receptor inhibits adenylate cyclase activity and the A2 adenosine receptor stimulates adenylate cyclase respectively (Stiles, ibid.; Williams, ibid.).
# (§2) Cells were grown to about 80% confluence in 150 mm dishes, washed twice with Ca^++ and Mg^++ -free PBS buffer and detached from plates with PBS buffer containing 0.02% EDTA. Cells were collected by centrifugation at 800 rpm (xx g) for 10 min at 4° C. and resuspended in an appropriate volume of KRH buffer [140 mM NaCl, 5 mM KCl , 2 mM CaCl2, 1.2 mM MgSO4, 1.2 mM KH2 PO4, 6 mM glucose, 25 mM Hepes-NaOH (pH 7.4)]. The cells were washed once with KRH buffer and resuspended in KRH buffer at a concentration of 10^7 cells/ml. Each of 100 μl aliquots of this cell suspension were added to a glass tube containing 100 μl KRH+200 μM Ro 20-1724 and incubated at 37° C. for 10 min. Prewarmed 200 μl KRH containing 200 μm Ro 20-1724 and test drugs were then added to the cells and mixed. After incubation at 37° C. for 20 min, 400 μl 10.5 mM NaAc (pH 6.2) were added and the glass tubes transferred to a boiling water bath. The incubated cell suspension were boiled for 20 min, and the tubes were then cooled to room temperature and centrifuged at 3000 rpm (xx g) for 15 min.
# For experiments using pertussis toxin pretreatment, aseptic pertussis toxin (Sigma Chemical Co., St. Louis, Mo.) was dissolved in sterile water and added to the medium to a final concentration of 100 ng/ml. Toxin treatment was maintained for approximately 18 hours. The dishes were rinsed once with media immediately prior to the addition of adenosine receptor ligands and processed as described above.
# [3] = target: T1, A3 adenosine receptor; assay type: cell-based; conditions: 1 μM forskolin; 100 μM adenosine
# [4] = target: T1, A3 adenosine receptor; test: Direct radioligand binding / Scatchard analysis, stably transfected CHO cell membranes; conditions: radiolabeled ligands, stably transfected CHO membranes
# Description: FIG. 3 illustrates a Scatchard plot of radioligand binding assays for the A3 adenosine receptor performed with the adenosine radioligand [^125 I]APEA and membrane preparations from stably transfected CHO cells.
# The entire coding region of the A3 cDNA insert from R226 was excised from pGem226 and subcloned into either the HindIII/XbaI sites of an RC-RSV expression vector (Invitrogene, San Diego, Calif.) or the HindIII/SmaI sites of pBC12BI (Cullen, 1987, Meth. Enzym. 152: 684-704). The resulting plasmids were called Rc-RSV226 and pBC226 respectively. For transient expression in COS-7 cells, pBC226 plasmid DNA was prepared in large-scale through one cycle of CsCl gradient ultracentrifugation and 45 μg pBC226 DNA were transfected into each 150mm dish of COS-7 cells according to the method of Chen and Okayama (1987, Molec. Cell Biol. 7: 2745-2752). For stable expression in CHO cells, 1 μg Rc-RSV226 plasmid DNA isolated from a small-scale preparation was purified using the Prep-A-Gene kit (Bio-Rad) and transfected into CHO cells by the CaPO4 method (Graham and van der Eb, 1973, Virol. 52: 456-463). After transfection, cells were cultured in DMEM (COS-7 cells) or F-12 (CHO cells) media supplemented with 10% fetal calf serum in a 3% CO2 atmosphere at 37° C. For stable transfection, selection was performed with neomycin (G418; SOURCE) at a concentration of 700 μg/ml; selection was started 72 hr after transfection and continued for 3 weeks. Cell colonies were screened for expression of the A3 adenosine receptor from the R226 expression vectors described herein by Northern blot hybridization of total cellular RNA with random-primed PCR226 probe (Maniatis et al., ibid.).
# as §1
# Radioligand binding assays were carried out in duplicate in 500 μl of a solution containing (at final concentrations) 50 mM Tris-HCl (pH 7.4), 5 mM MgCl2, 1 mM EDTA, 0.025 % ascorbic acid, radioligands, and appropriate drugs. […] ([aH]XAC), [^3 H]-labeled 2-[4-(2-[(4-aminophenyl)methylcarbobylamino]ethylaminocarbonyl)ethyl)phenyl]ethylamino-5'-N-ethylcarboxamidoadenosine ([^3 H]PAPA-APEC), and [^3 H]-labeled [2-(4-(2-carboxyethyl)phenylethyamino)5'-N-ethylcarboxamidoadenosine ([^3 H]CGS21680). Receptor binding was initiated by the addition of membrane preparations in an amount equivalent to 20-100 μg protein, and carried out at 37° C. for 1 hr.
# [5] = tested on: cellular cAMP levels; test: Cellular cAMP levels after forskolin in wild type and stably transfected CHO cells; assay type: cell-based, Chinese hamster; conditions: Cricetulus griseus, 20 min, read-out: increase in cellular cAMP levels, 1 μM forskolin
# Procedure: as §2
compound,measurement,setting,value
"Nc1ncnc2c1ncn2[C@@H]1O[C@H](CO)[C@@H](O)[C@H]1O [Adenosine, adenosine]",affinity relative to nucleotides,[1],"much higher affinity than ATP, ADP, AMP, cAMP or UTP"
same,IC50,"[1]; Table I and text, 0.5 nM [125I]APNEA",30 ± 4 µM
same,pharmacological profile of inhibition of [125I]APNEA binding,[1]; rank order,R-PIA=NECA>S-PIA>adenosine>ATP=ADP
same,EC50,[2]; Table II,6.5 ± 2.1 µM
same,maximal effect on cAMP production,[2]; at the concentrations tested,does not reach its maximal effect at the concentrations tested
same,inhibition of forskolin-stimulated cAMP accumulation,[3],20-50%
CCNC(=O)[C@H]1O[C@@H](n2cnc3c(N)nc(NCCc4ccc(CCC(=O)O)cc4)nc32)[C@H](O)[C@@H]1O [CGS21680],"specific, high affinity binding to the A3 receptor",[4],"The only adenosine receptor ligand to show specific, high affinity binding to the A3 receptor was the A1 selective agonist [^125 I]APNEA"
same,EC50,[2],0.144 ± 0.034 µM
same,inhibition of forskolin-stimulated cAMP accumulation,"[2]; 1 μM forskolin, 100 nM agonist",20-50%
same,maximum inhibition of cAMP production,[2]; of control values,40-50%
"CCCn1c(=O)c2[nH]c(C3CCCC3)nc2n(CCC)c1=O [DPCPX, 1,3-dipropyl-8-cyclopentylxanthine]","specific, high affinity binding to the A3 receptor",[4],"The only adenosine receptor ligand to show specific, high affinity binding to the A3 receptor was the A1 selective agonist [^125 I]APNEA"
same,"specific, high affinity binding to the A3 receptor",[4]; listed as [^3 H]DPCPX,does not bind to the A3 adenosine receptor
same,ability to compete with [125I]APNEA for A3 receptor binding,[1],none of the methylxanthines tested were capable of competing with labeled APNEA
same,reversal of inhibitory effect of NECA on forskolin-stimulated cAMP production,[2]; 10 nM DPCPX,could not be reversed
CCNC(=O)[C@H]1O[C@@H](n2cnc3c(N)nc(NCCc4ccc(CCC(=O)NCCNC(=O)Cc5ccc(N)cc5)cc4)nc32)[C@H](O)[C@@H]1O [PAPA-APEC],"specific, high affinity binding to the A3 receptor",[4],"The only adenosine receptor ligand to show specific, high affinity binding to the A3 receptor was the A1 selective agonist [^125 I]APNEA"
CCCn1c(=O)c2[nH]c(-c3ccc(OCC(=O)NCCN)cc3)nc2n(CCC)c1=O [XAC],"specific, high affinity binding to the A3 receptor",[4],"The only adenosine receptor ligand to show specific, high affinity binding to the A3 receptor was the A1 selective agonist [^125 I]APNEA"
same,ability to compete with [125I]APNEA for A3 receptor binding,[1],none of the methylxanthines tested were capable of competing with labeled APNEA
C=C[C@@]1(C)CC(=O)[C@]2(O)[C@@]3(C)[C@@H](O)CCC(C)(C)[C@@H]3[C@H](O)[C@H](OC(C)=O)[C@@]2(C)O1 [forskolin],fold induction at 1 µM,[5],15
